The record followed here is ChEMBL document CHEMBL1143118, “6-Acetyl-7,7-dimethyl-5,6,7,8-tetrahydropterin is an activator of nitric oxide synthases” (Bioorg Med Chem Lett, 2008).

In experiment [1] the test system is Aortic ring. Briefly: Relaxation of phenyphrine-induced constriction in rat aortic rings at 0.3 mM relative to control. In kind it is functional, Aorta. Further details: scale not given: the % may be the effect or the level left.
The test system of experiment [2] is Aortic ring. Briefly: Relaxation of phenyphrine-induced constriction in rat aortic rings. In kind it is functional, tissue-based. Conditions: Aorta.
The subject of experiment [3] is Aortic ring. Briefly: Relaxation of phenyphrine-induced constriction in rat aortic rings in presence of L-NAME. Set-up: scale not given: the % may be the effect or the level left. The class given is functional, Aorta.
The nature of experiment [4]: Effect on nitric oxide production in tetrahydrobiopterin depleted pig pulmonary artery endothelial cells at 30 uM after 72 hrs. The class given is functional, Sus scrofa, Endothelial cell.
Experiment [5] concerns Macrophage. Briefly: Effect on nitric oxide production in tetrahydrobiopterin depleted mouse bone marrow macrophages at 1 uM after 72 hrs. In kind it is functional.
The target in experiment [6] is Nitric oxide synthase 1 (Homo sapiens, UniProt P29475). Briefly: Activity of tetrahydrobiopterin free nNOS.

Each structure is given as a SMILES string.

Nitric oxide synthase 1, sequence (P29475 whole entry): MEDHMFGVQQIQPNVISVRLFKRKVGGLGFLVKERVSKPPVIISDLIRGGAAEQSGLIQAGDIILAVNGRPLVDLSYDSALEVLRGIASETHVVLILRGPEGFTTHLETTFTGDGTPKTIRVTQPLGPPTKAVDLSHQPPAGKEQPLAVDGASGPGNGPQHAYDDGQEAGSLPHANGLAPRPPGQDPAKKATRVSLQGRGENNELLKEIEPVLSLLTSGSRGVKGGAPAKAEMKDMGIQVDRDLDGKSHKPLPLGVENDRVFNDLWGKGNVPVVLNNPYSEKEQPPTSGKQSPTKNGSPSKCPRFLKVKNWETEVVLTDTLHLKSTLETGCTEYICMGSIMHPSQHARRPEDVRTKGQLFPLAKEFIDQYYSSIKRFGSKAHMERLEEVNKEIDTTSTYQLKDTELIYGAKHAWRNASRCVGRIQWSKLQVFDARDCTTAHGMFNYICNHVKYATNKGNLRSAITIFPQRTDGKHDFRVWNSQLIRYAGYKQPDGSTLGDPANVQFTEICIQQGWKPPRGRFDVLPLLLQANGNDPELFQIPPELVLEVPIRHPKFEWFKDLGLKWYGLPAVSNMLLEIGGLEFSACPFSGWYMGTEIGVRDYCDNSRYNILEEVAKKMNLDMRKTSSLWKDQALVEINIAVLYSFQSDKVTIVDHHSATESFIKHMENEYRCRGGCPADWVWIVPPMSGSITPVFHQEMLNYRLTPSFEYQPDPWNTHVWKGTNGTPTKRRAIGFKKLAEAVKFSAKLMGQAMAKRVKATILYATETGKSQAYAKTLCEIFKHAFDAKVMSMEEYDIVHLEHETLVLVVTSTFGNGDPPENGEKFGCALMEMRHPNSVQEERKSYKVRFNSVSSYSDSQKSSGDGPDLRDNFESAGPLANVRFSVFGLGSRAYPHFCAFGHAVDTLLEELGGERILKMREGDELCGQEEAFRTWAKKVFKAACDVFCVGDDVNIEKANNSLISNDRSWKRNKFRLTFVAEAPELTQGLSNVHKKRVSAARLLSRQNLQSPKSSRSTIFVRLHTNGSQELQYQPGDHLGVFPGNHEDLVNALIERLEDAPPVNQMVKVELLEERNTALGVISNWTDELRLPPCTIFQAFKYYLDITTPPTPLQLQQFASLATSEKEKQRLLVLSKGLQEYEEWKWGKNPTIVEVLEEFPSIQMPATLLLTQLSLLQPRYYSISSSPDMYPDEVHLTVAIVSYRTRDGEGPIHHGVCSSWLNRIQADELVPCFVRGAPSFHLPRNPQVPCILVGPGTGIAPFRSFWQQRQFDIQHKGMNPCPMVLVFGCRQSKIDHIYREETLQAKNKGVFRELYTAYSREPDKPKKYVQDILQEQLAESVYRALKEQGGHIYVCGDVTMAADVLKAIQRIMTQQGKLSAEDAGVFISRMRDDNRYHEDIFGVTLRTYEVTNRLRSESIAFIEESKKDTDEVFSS

A word on the EC50: it is the midpoint of the concentration-response curve. Consider `CC(=O)C1=Nc2c(nc(N)[nH]c2=O)NC1(C)C`, for which the Activity in experiment [1] was 24.2%; in experiment [3], 5.4%; in experiment [4] it was 11.4 µM; in experiment [5], 6.2 µM. The compound also registered an EC50 in experiment [2] of 0.01 µM.
One may read the Kd as the equilibrium constant for the complex coming apart. `CC(=O)C1Nc2c(nc(N)[nH]c2=O)NC1(C)C` (configuration not stated) had a Kd in experiment [6] of 151 µM.
On to `C[C@H](O)[C@H](O)[C@H]1CNc2nc(N)[nH]c(=O)c2N1` [SAPROPTERIN], for which the affinity in experiment [6], expressed as Kd, was 1.12 µM.
